Results: patent publication US9750256B2, “Herbicidal isoxazolo[5,4-B]pyridines” (BASF SE, priority 2012, dated 2017)

Legend:
Assay type in all cases: in vivo
[1] = system: Polygonum convolvulus (wild buckwheat); assay: Greenhouse post-emergence treatment of Polygonum convolvulus; conditions: scale 0 (no damage) to 100 (complete destruction)
Text: (§1) The culture containers used were plastic flowerpots containing loamy sand with approximately 3.0% of humus as the substrate. The seeds of the test plants were sown separately for each species.
(§2) For the post-emergence treatment, the test plants were first grown to a height of 3 to 15 cm, depending on the plant habit, and only then treated with the active ingredients which had been suspended or emulsified in water. For this purpose, the test plants were either sown directly and grown in the same containers, or they were first grown separately as seedlings and transplanted into the test containers a few days prior to treatment.
(§3) Depending on the species, the plants were kept at 10-25° C. or 20-35° C. The test period extended over 2 to 4 weeks. During this time, the plants were tended, and their response to the individual treatments was evaluated.
(§4) Evaluation was carried out using a scale from 0 to 100. 100 means no emergence of the plants, or complete destruction of at least the aerial moieties, and 0 means no damage, or normal course of growth. A good herbicidal activity is given at values of at least 80 and a very good herbicidal activity is given at values of at least 90.

[2] = system: Chenopodium album (fat-hen); assay: Greenhouse post-emergence treatment of Chenopodium album; conditions: scale 0 (no damage) to 100 (complete destruction)
Text: as §1, §2, §3, §4

[3] = system: Amaranthus retroflexus L. (pigweed); assay: Greenhouse post-emergence treatment of Amaranthus retroflexus L.; conditions: scale 0 (no damage) to 100 (complete destruction)
Text: as §1, §2, §3, §4

[4] = system: Echinochloa crus-galli (barnyard grass); assay: Greenhouse post-emergence treatment of Echinochloa crus-galli; conditions: application rate 500 [kg/ha], scale 0 (no damage) to 100 (complete destruction)
Text: as §1, §2, §3, §4

[5] = system: Setaria viridis (green foxtail); assay: Greenhouse post-emergence treatment of Setaria viridis; conditions: application rate 500 [kg/ha], scale 0 (no damage) to 100 (complete destruction)
Text: as §1, §2, §3, §4

| Compound | damage [%] ([2]; application rate 500 [kg/ha]) | damage [%] ([3]; application rate 500 [g/ha]) | other results |
| --- | --- | --- | --- |
| O=C(NCC(F)(F)F)NN=CCCc1noc2nc(C3CC3)cc(C(=O)O)c12 [I.a.60] |  |  | damage [%] ([1]; application rate 500 [kg/ha]): 95% |
| O=C(O)c1cc(C2CC2)nc2onc(OC3COC3)c12 [I.a.89] | 70 | 70 |  |
| COCCOc1noc2nc(C3CC3)cc(C(=O)O)c12 [I.a.67] |  |  | damage [%] ([2]; application rate 1000 [kg/ha]): 100%; damage [%] ([1]; application rate 1000 [kg/ha]): 98% |
| O=C(O)c1cc(C2CC2)nc2onc(OC3CCCC3)c12 [I.a.91] | 98 | 100 |  |
| CCC(CCc1noc2nc(C3CC3)cc(C(=O)O)c12)=NN [I.a.81] | 75 |  |  |
| O=C(O)c1cc(C2CC2)nc2onc(OCc3ccccc3)c12 [I.a.66] |  |  | damage [%] ([2]; application rate 1000 [kg/ha]): 100%; damage [%] ([3]; application rate 1000 [g/ha]): 100% |
| O=C(O)c1cc(C2CC2)nc2onc(OC3CCCCC3Cl)c12 (stereo not shown) [I.a.88] | 100 | 100 |  |
| C=CCOc1noc2nc(C3CC3)cc(C(=O)O)c12 [I.a.44] |  |  | damage [%] ([2]; application rate 1000 [kg/ha]): 100%; damage [%] ([3]; application rate 1000 [g/ha]): 100% |
| O=C(O)c1cc(C2CC2)nc2onc(SCc3ccccc3)c12 [I.a.85] |  |  | damage [%] [4]: 70% |
| CCC(CCc1noc2nc(C3CC3)cc(C(=O)O)c12)=NOC (mixture of isomers) [I.a.80] | 98 | 100 | damage [%] ([1]; application rate 500 [kg/ha]): 100% |
| CCC(=O)CCc1noc2nc(C3CC3)cc(C(=O)O)c12 [I.a.74] | 98 | 98 |  |
| CCC(CCc1noc2nc(C3CC3)cc(C(=O)O)c12)=NO (mixture of isomers) [I.a.79] |  | 100 | damage [%] ([1]; application rate 500 [kg/ha]): 85% |
| O=C(O)c1cc(C2CC2)nc2onc(OC3CCC3)c12 [I.a.92] | 100 | 100 | damage [%] [5]: 85% |
| O=C(O)c1cc(C2CC2)nc2onc(SC3CCCC3)c12 [I.a.87] | 70 | 80 | damage [%] [4]: 75% |
| CON=CCCc1noc2nc(C3CC3)cc(C(=O)O)c12 [I.a.59] | 98 | 98 |  |
| O=C(O)c1cc(C2CC2)nc2onc(SC3CCCCC3)c12 [I.a.86] |  | 95 |  |
